This is an account of results in patent US20030203819A1, “Synergistically acting herbicidal mixtures” (priority 1998, published 2003).

Common to all, as to assay type: in vivo
Data set [1] concerns Triticum aestivum. The experiment in a line: Phytotoxicity to crop plant in the greenhouse (post-emergence treatment). The source says:
(§1) The mixtures according to the invention were applied pre- or post-emergence (foliar treatment). The herbicidal compounds of component B were applied in the formulation in which they are present as commercially available product.
(§2) Some of the experiments were greenhouse experiments and some were field trials on mini plots (on a site with sandy loam (pH 6.2 to 7.0) or sandy clay (pH 5.0 to 6.7) as the soil).
(§3) The herbicidally active compounds of components A) and B) were applied in succession or jointly, in the latter case in some cases as a tank mix and in some cases as a readymix, in the form of emulsions, aqueous solutions or suspensions, the vehicle being water ([…]). In the case of the field trials, application was effected with the aid of a mobile plot sprayer.
(§4) The test period extended over 3 to 8 weeks, and the stands were also observed at later points in time.
(§5) Damage by the herbicidal compositions was evaluated with reference to a scale of 0% to 100% in comparison with untreated control plots. 0 means no damage and 100 means complete destruction of the plants.
(§6) In these examples, the value E at which only an additive effect of the individual active ingredients is to be expected was calculated by the method of S. R. Colby (Calculating synergistic and antagonistic responses of herbicide combinations, Weeds 15, 20 pp (1967).

In data set [2] the test system is Veronica ssp. Put plainly: Herbicidal action in the greenhouse (post-emergence treatment).
Description: as §1, §2
(§7) The harmful plants differed with regard to size and developmental state; on average, they were 5 to 20 cm long, depending on the growth habit.
as §3, §4, §5, §6

Data set [3] relates to Amaranthus retroflexus. The description is as above. As to conditions: Amaranthus retroflexus, post-emergence.
Description: as §1, §2, §7, §3, §4, §5, §6

Data set [4] concerns Zea mays. The experiment in a line: Phytotoxicity to crop plant in the greenhouse (post-emergence treatment).
Description: as §1, §2, §3, §4, §5, §6

The subject of data set [5] is Abutilon theophrasti. Put plainly: Herbicidal action in the greenhouse (post-emergence treatment). As to conditions: Ia.33 7.8 g/ha a.s.
Description: as §1, §2, §7, §3, §4, §5, §6

Data set [6] relates to Setaria faberi. The description is as above. As to conditions: Ia.33 7.8 g/ha a.s.
Description: as §1, §2, §7, §3, §4, §5, §6

The test system of data set [7] is Echinochloa crus-galli. The description is as above.
Description: as §1, §2, §7, §3, §4, §5, §6

In data set [8] the test system is Ipomoea ssp. The description is as above.
Description: as §1, §2, §7, §3, §4, §5, §6

Data set [9] relates to Alopecurus myosuroides. The description is as above.
Description: as §1, §2, §7, §3, §4, §5, §6

Data set [10] deals with Galium aparine. Put plainly: Herbicidal action in the field (post-emergence treatment). As to conditions: Ia.33 1.9 g/ha a.s.
Description: as §1, §2, §7, §3, §4, §5, §6

Data set [11] relates to Setaria faberi. The data set is described as above. As to conditions: Ia.33 75 g/ha a.s.
Description: as §1, §2, §7, §3, §4, §5, §6

The test system of data set [12] is Panicum miliaceum. The description is as above.
Description: as §1, §2, §7, §3, §4, §5, §6

The subject of data set [13] is Sorghum bicolor. Described as above.
Description: as §1, §2, §7, §3, §4, §5, §6

For data set [14], the system named is Sorghum halepense. The description is as above. As to conditions: for Damage (%): Sorghum halepense, field, post-emergence, Ia.33 75 g/ha a.s.
Description: as §1, §2, §7, §3, §4, §5, §6

For data set [15], the system named is Ipomoea lacunosa. The description is as above. As to conditions: Ia.33 75 g/ha a.s.
Description: as §1, §2, §7, §3, §4, §5, §6

In data set [16] the test system is Cyperus iria. Described as above. As to conditions: benthiocarb 3000 g/ha a.s.
Description: as §1, §2, §7, §3, §4, §5, §6

Data set [17] has as its system Amaranthus retroflexus. The experiment in a line: Herbicidal action in the greenhouse (pre-emergence treatment). As to conditions: Dimethenamid 125 g/ha a.s.
Description: as §1, §2, §7, §3, §4, §5, §6

Data set [18] has as its system Cyperus iria. The data set is described as above. As to conditions: Dimethenamid 62.5 g/ha a.s.
Description: as §1, §2, §7, §3, §4, §5, §6

For data set [19], the system named is Digitaria sanguinalis. The data set is described as above.
Description: as §1, §2, §7, §3, §4, §5, §6

For data set [20], the system named is Echinochloa crus-galli. The data set is described as above. As to conditions: S-Metolachlor 62.5 g/ha a.s.
Description: as §1, §2, §7, §3, §4, §5, §6

For data set [21], the system named is Setaria viridis. Described as above. As to conditions: S-Metolachlor 62.5 g/ha a.s.
Description: as §1, §2, §7, §3, §4, §5, §6

The test system of data set [22] is Anthemis mixta. The experiment in a line: Herbicidal action in the field (post-emergence treatment). As to conditions: carfentrazone-ethyl 30 g/ha a.s.
Description: as §1, §2, §7, §3, §4, §5, §6

Data set [23] has as its system Lolium perenne. The data set is described as above. As to conditions: paraquat-dichloride 400 g/ha a.s.
Description: as §1, §2, §7, §3, §4, §5, §6

The test system of data set [24] is Richardia brasiliensis. Described as above. As to conditions: Bentazone 1440 g/ha a.s.
Description: as §1, §2, §7, §3, §4, §5, §6

Data set [25] concerns Amaranthus retroflexus. The description is as above. As to conditions: dicamba 280 g/ha a.s.
Description: as §1, §2, §7, §3, §4, §5, §6

Regarding `Cc1cc(-c2c(S(C)(=O)=O)ccc(C(=O)c3cnn(C)c3O)c2Cl)on1` [Ia.52, 4-[2-chloro-3-(3-methyl-isoxazol-5-yl)-4-methylsulfonylbenzoyl]-1-methyl-5-hydroxy-1H-pyrazole], the “Phytotoxicity (%)” value in data set [1] (Table 83, Ia.52 62.5 g/ha a.s.) turned out to be 0%. In data set [2] (Ia.52 15.6 g/ha a.s.), the Damage is 40%. The pest or weed control at 62.5 g/ha in [3] (read-out: Damage, Ia.52 62.5 g/ha a.s.) is 75%.
With `Cc1c(C(=O)c2cnn(C)c2O)ccc(S(C)(=O)=O)c1C1=NOCC1` [Ia.33, 4-[2-methyl-3-(4,5-dihydroisoxazol-3-yl)-4-methylsulfonylbenzoyl]-1-methyl-5-hydroxy-1H-pyrazole], the “Phytotoxicity (%)” value in data set [4] (Table 84, Ia.33 62.5 g/ha a.s.) is given as 0%. In addition, the Damage in data set [5] worked out at 90%; in data set [6], 90%; in [2] (Ia.33 15.6 g/ha a.s.) it was 60%; in data set [2] (Ia.33 62.5 g/ha a.s. (Table 18)), 20%; in [2] (Ia.33 62.5 g/ha a.s. (Table 51)), 80%; in [7] (Ia.33 1.9 g/ha a.s.), 55%. Further, the Damage in [7] (Ia.33 15.6 g/ha a.s.) came to 90%; in data set [8] (Ia.33 3.9 g/ha a.s.) it was 50%; in data set [8] (Ia.33 62.5 g/ha a.s.) it was 80%; in data set [9] (Ia.33 15.6 g/ha a.s.), 40%; in data set [9] (Ia.33 62.5 g/ha a.s. (Table 19)), 40%; in data set [9] (Ia.33 62.5 g/ha a.s. (Table 62)), 40%. Also, the Damage came out at 20% in data set [10]; 65% in [11]; 87% in data set [12] (Ia.33 50 g/ha a.s.); 78% in [13] (Ia.33 75 g/ha a.s. (Table 73)); 78% in data set [14] (Ia.33 75 g/ha a.s. (Table 32)); 78% in data set [14] (Ia.33 75 g/ha a.s. (Table 42)). Also, in data set [15], the Damage came out at 69%. For the same compound, the pest or weed control at 1.9 g/ha in [3] (read-out: Damage, Ia.33 1.9 g/ha a.s.) amounted to 30%. The pest or weed control at 7.8 g/ha in data set [3] (read-out: Damage, Ia.33 7.8 g/ha a.s.) worked out at 70%. Moreover, the “Damage (%)” value in data set [11] (Table 82, Setaria faberi, field, post-emergence) was found to be 65%; in [14] (Table 78), 78%; in data set [14] (Table 79), 78%; in data set [15] (Table 81, Ipomoea lacunosa, field, post-emergence), 69%.
Regarding `CCN(CC)C(=O)SCc1ccc(Cl)cc1` [benthiocarb], the Damage in data set [16] is recorded as 50%.
`COCC(C)N(C(=O)CCl)c1c(C)csc1C` (stereo not drawn) [Dimethenamid, dimethenamid, reference compound]: the Damage in data set [17] amounted to 80%; in data set [18] it was 95%; in data set [19] (Dimethenamid 125 g/ha a.s.) it was 80%; in data set [2] (Dimethenamid 500 g/ha a.s. (Table 43)), 70%; in [2] (Dimethenamid 500 g/ha a.s. (Table 45)) it was 70%; in data set [12] (dimethenamid 841 g/ha a.s.), 23%. The Damage in data set [14] (dimethenamid 1120 g/ha a.s.) is recorded as 7%. In addition, the pest or weed control at 500 g/ha in data set [3] (Dimethenamnid 500 g/ha a.s., read-out: Damage) turned out to be 10%.
Consider `CCc1cccc(C)c1N(C(=O)CCl)[C@@H](C)COC` [S-Metolachlor, S-metolachlor, reference compound], for which the Damage amounted to 65% in [20]; 50% in data set [19] (S-Metolachor 125 g/ha a.s.); 70% in [21]; 0% in data set [2] (S-Metolachlor 125 g/ha a.s.); 0% in data set [8] (S-Metolachlor 62.5 g/ha a.s.). Besides, in [4] (Table 84, S-Metolachlor 125 g/ha a.s.), the “Phytotoxicity (%)” value was determined as 0%.
In the case of `CCOC(=O)C(Cl)Cc1cc(-n2nc(C)n(C(F)F)c2=O)c(F)cc1Cl` (stereo not drawn) [carfentrazone-ethyl, reference compound], the pest or weed control at 0.9 g/ha in data set [3] (read-out: Damage, carfentrazone-ethyl 0.9 g/ha a.s.) stood at 60%. Moreover, the Damage in [22] was 0%.
Consider `COCC(C)N(C(=O)CCl)c1c(C)csc1C` (stereo not drawn) [Dimethenamide], for which the “Phytotoxicity (%)” value in [1] (Table 83, Dimethenamide 500 g/ha a.s.) amounted to 0%.
Regarding `C[n+]1ccc(-c2cc[n+](C)cc2)cc1` [paraquat-dichloride, reference compound], the Damage in data set [23] was 97%.
For the compound `CC(C)N1C(=O)c2ccccc2NS1(=O)=O` [Bentazone, bentazone, reference compound], in data set [24], the Damage was determined as 77%.
With `COc1c(Cl)ccc(Cl)c1C(=O)O` [dicamba, reference compound], the results for the Damage in data set [25] and in data set [13] (dicamba 560 g/ha a.s.) were 25% and 17%, respectively.
